Reference: ChEMBL document CHEMBL5131467, “Multivalent peptide dendrimers inhibit the fusion of viral-cellular membranes and the cellular NF-κB signaling pathway” (Eur J Med Chem, 2022)
The source made the active and inactive calls. The rule behind the calls is not given here. Where a SMILES comes first, the peptide text is derived from it. Bridges are numbered along the chain shown (N, C = ends). Roman numbers before positions name the chains, in order. Side-chain parts run from the residue outwards. The star is where a group is joined. Acetyl(2-naphthyl) = O=C(Cc1ccc2ccccc2c1)*; Fmoc = O=C(OCC1c2ccccc2-c2ccccc21)*

Experiments:
[1] = Cytotoxicity against MDCK cells incubated for 1 hr by MTT assay; type: toxicity, cell-based, Canis lupus familiaris; settings: dog
Influenza A virus [2] = test: Antiviral activity against Influenza A virus A/FM/1/47 infected in MDCK cells incubated for 1 hr by MTT assay; type: functional, organism-based; settings: A/FM/1/47, MDCK
Influenza A virus [3] = test: Antiviral activity against Influenza A virus A/Aichi/2/68(H3N2) infected in MDCK cells incubated for 1 hr by MTT assay; type: functional, organism-based
RAW264.7 [4] = test: Anti-inflammatory activity against mouse RAW264.7 cells assessed as reduction in Influenza A virus (A/Puerto Rico/8/1934(H1N1)) induced TNF alpha level at 1 ug/ml by ELISA method; type: functional; settings: dose 1 µg/ml
RAW264.7 [5] = test: Anti-inflammatory activity against mouse RAW264.7 cells assessed as reduction in Influenza A virus (A/Puerto Rico/8/1934(H1N1)) induced TNF alpha level at 5 ug/ml by ELISA method; type: functional; settings: dose 5 µg/ml
RAW264.7 [6] = test: Anti-inflammatory activity against mouse RAW264.7 cells assessed as reduction in LPS induced TNF alpha level at 1 ug/ml by ELISA method; type: functional; settings: dose 1 µg/ml
Influenza A virus [7] = test: Antiviral activity against Influenza A virus (A/Puerto Rico/8/1934(H1N1)) infected in MDCK cells assessed as reduction in virus induced cytopathic effect pre-treated with virus followed by cell infection for 1 hr by MTT assay; type: functional, organism-based
Influenza A virus [8] = test: Antiviral activity against Influenza A virus 699(H3) clinical isolate infected in MDCK cells incubated for 1 hr by MTT assay; type: functional, organism-based
RAW264.7 [9] = test: Anti-inflammatory activity against mouse RAW264.7 cells assessed as reduction in LPS induced TNF alpha level at 5 ug/ml by ELISA method; type: functional; settings: dose 5 µg/ml
[10] = Selectivity index, ratio of CC50 for MDCK cells to IC50 antiviral activity against Influenza A virus (A/Puerto Rico/8/1934(H1N1)) infected in MDCK cells assessed as reduction in virus induced cytopathic effect pre-treated with virus; type: toxicity, cell-based; settings: dog, read-out: Selectivity Index
Influenza B virus = test: Antiviral activity against Influenza B virus 699[…] clinical isolate infected in MDCK cells incubated for 1 hr by MTT assay; type: functional, organism-based
[11] = Cytotoxicity against MDCK cells by CCK-8 assay; type: toxicity, cell-based, Canis lupus familiaris; settings: dog
Influenza A virus [12] = test: Antiviral activity against Influenza A virus (A/Puerto Rico/8/1934(H1N1)) infected in MDCK cells assessed as reduction in viral nucleoprotein expression level at 2.5 ug/ml pre-treated with virus measured after 24 hrs post infection by indirect immunofluorescence assay; type: functional, organism-based; settings: dose 2.5 µg/ml
Influenza A virus [13] = test: Antiviral activity against Influenza A virus (A/Puerto Rico/8/1934(H1N1)) infected in MDCK cells assessed as reduction in virus induced cytopathic effect during infection incubated for 1 hr by MTT assay; type: functional, organism-based
RAW264.7 [14] = test: Anti-inflammatory activity against Influenza A virus (A/Puerto Rico/8/1934(H1N1)) induced mouse RAW264.7 cells assessed as suppression of NF kappa B expression level 5 ug/ml by luciferase reporter assay; type: functional, cell-based; settings: dose 5.0 µg/ml
RAW264.7 [15] = test: Anti-inflammatory activity against LPS induced mouse RAW264.7 cells assessed as suppression of NF kappa B expression level at 5 ug/ml by luciferase reporter assay; type: functional, cell-based; settings: dose 5.0 µg/ml
RAW264.7 [16] = test: Anti-inflammatory activity against mouse RAW264.7 cells assessed as reduction in influenza A virus induced IL-6 level at 5 ug/ml by qRT- PCR; type: functional, cell-based; settings: dose 5.0 µg/ml
Hemagglutinin = Hemagglutinin (Influenza A virus, UniProt B4URE7); test: Binding affinity to Influenza A Puerto Rico/8/1934/H1N1 hemagglutin assessed as dissociation constant by surface plasmon resonance assay
RAW264.7 [17] = test: Anti-inflammatory activity against mouse RAW264.7 cells assessed as reduction in influenza A virus induced IL-1 beta level at 5 ug/ml by qRT- PCR; type: functional, cell-based; settings: dose 5.0 µg/ml
Influenza A virus [18] = test: Antiviral activity against Influenza A virus (A/Puerto Rico/8/1934(H1N1)) infected in MDCK cells assessed as reduction in HA mRNA level at 1 ug/ml measured after 24 hrs post infection by qRT-PCR analysis; type: functional, organism-based; settings: dose 1.0 µg/ml
Influenza A virus [19] = test: Antiviral activity against Influenza A virus (A/Puerto Rico/8/1934(H1N1)) infected in MDCK cells assessed as reduction in virus induced cytopathic effect pretreated with compound incubated for 1 hrs by MTT assay; type: functional, organism-based
Influenza A virus [20] = test: Antiviral activity against Influenza A virus (A/Puerto Rico/8/1934(H1N1)) infected in MDCK cells assessed as reduction in viral nucleoprotein expression level at 2.5 ug/ml pretreated with compound measured after 24 hrs post infection by indirect immunofluorescence assay; type: functional, organism-based; settings: dose 2.5 µg/ml
RAW264.7 [21] = test: Anti-inflammatory activity against mouse RAW264.7 cells assessed as reduction in LPS induced IL-6 level at 5 ug/ml by qRT-PCR analysis; type: functional, cell-based; settings: dose 5.0 µg/ml
RAW264.7 [22] = test: Anti-inflammatory activity against mouse RAW264.7 cells assessed as reduction in LPS induced IL-1 beta level at 5 ug/ml by qRT-PCR analysis; type: functional, cell-based; settings: dose 5.0 µg/ml
RAW264.7 [23] = test: Anti-inflammatory activity against mouse RAW264.7 cells assessed as reduction in LPS induced TNF alpha level at 5 ug/ml by qRT-PCR analysis; type: functional, cell-based; settings: dose 5.0 µg/ml
Mus musculus [24] = test: Antiviral activity against Kunming mouse infected with Influenza A virus (A/Puerto Rico/8/1934(H1N1)) assessed as survival rate at 5 mg/kg, ip administered once a day for 5 days relative to control; type: functional; settings: 120 h, time 5 day
Influenza A virus [25] = test: Antiviral activity against Influenza A virus (A/Puerto Rico/8/1934(H1N1)) infected in MDCK cells assessed as reduction in viral nucleoprotein expression level at 2.5 ug/ml during infection measured after 24 hrs post infection by indirect immunofluorescence assay; type: functional, organism-based; settings: dose 2.5 µg/ml
Influenza A virus [26] = test: Antiviral activity against Influenza A virus (A/Puerto Rico/8/1934(H1N1)) infected in MDCK cells assessed as reduction in virus induced cytopathic effect after infection incubated for 1 hr by MTT assay; type: functional, organism-based
Mus musculus [27] = test: Antiviral activity against Kunming mouse infected with Influenza A virus (A/Puerto Rico/8/1934(H1N1)) assessed as increase in body weight at 5 mg/kg, ip measured after 15 days (reference value: 178.7%); type: functional; settings: time 15 day
Influenza A virus [28] = test: Antiviral activity against Influenza A virus (A/Puerto Rico/8/1934(H1N1)) infected in MDCK cells assessed as reduction in M1 mRNA level at 1 ug/ml measured after 24 hrs post infection by qRT-PCR analysis; type: functional, organism-based; settings: dose 1.0 µg/ml
RAW264.7 [29] = test: Anti-inflammatory activity against mouse RAW264.7 cells assessed as reduction in influenza A virus induced TNF alpha level at 5 ug/ml by qRT- PCR; type: functional, cell-based; settings: dose 5.0 µg/ml

Hemagglutinin, sequence (B4URE7 whole entry): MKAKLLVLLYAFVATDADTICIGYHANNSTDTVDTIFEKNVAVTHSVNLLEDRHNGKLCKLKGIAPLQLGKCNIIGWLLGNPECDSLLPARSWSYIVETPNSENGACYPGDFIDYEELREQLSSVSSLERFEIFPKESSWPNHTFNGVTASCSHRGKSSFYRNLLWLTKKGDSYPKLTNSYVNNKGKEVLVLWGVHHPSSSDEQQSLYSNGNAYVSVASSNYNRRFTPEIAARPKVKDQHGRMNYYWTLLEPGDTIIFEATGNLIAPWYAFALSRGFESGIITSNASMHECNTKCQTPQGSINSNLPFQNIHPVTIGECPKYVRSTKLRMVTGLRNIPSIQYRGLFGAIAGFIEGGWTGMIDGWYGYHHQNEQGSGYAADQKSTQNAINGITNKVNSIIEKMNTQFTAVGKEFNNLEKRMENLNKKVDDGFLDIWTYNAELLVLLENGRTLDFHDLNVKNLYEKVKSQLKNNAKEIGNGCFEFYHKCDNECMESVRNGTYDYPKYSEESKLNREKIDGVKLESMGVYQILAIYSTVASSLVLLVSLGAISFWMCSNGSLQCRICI

| SMILES | CC50 at 1 h [1] [nM] | IC50 (Influenza A virus [2]) [nM] | IC50 (Influenza A virus [3]) [nM] | IC50 (Influenza A virus [7]) [nM] | IC50 (Influenza A virus [8]) [nM] | selectivity ratio [10] | IC50 (Influenza B virus) [nM] | CC50 [11] [nM] | IC50 (Influenza A virus [13]) [nM] | IC50 (Influenza A virus [19]) [nM] | IC50 (Influenza A virus [26]) [nM] | other results |
| --- | --- | --- | --- | --- | --- | --- | --- | --- | --- | --- | --- | --- |
| CCOC(=O)c1c(CSc2ccccc2)n(C)c2cc(Br)c(O)c(CN(C)C)c12.Cl | 32900 | 1450 | 1180 | 360 | 1560 | 91.4 | 410 |  |  |  |  | Activity (RAW264.7 [4]): 206.5 pg/mL; Activity (RAW264.7 [5]): 294.9 pg/mL; Activity (RAW264.7 [6]): 320.5 pg/mL; Activity (RAW264.7 [9]): 400.5 pg/mL |
| NCCCC[C@H](NC(=O)[C@H](Cc1c[nH]c2ccccc12)NC(=O)[C@H](CCCCN)NC(=O)[C@H](CCCCN)NC(=O)OCC1c2ccccc2-c2ccccc21)C(=O)O (Fmoc-KKWK-OH) | > 200000 |  |  | 4020 |  |  |  | 200000 |  |  |  |  |
| NCCCC[C@H](NC(=O)Cc1ccc2ccccc2c1)C(=O)N[C@@H](CCCCN)C(=O)N[C@@H](Cc1c[nH]c2ccccc12)C(=O)N[C@@H](CCCCN)C(=O)NCCCC[C@H](NC(=O)[C@H](CCCCN)NC(=O)[C@H](Cc1c[nH]c2ccccc12)NC(=O)[C@H](CCCCN)NC(=O)[C@H](CCCCN)NC(=O)Cc1ccc2ccccc2c1)C(=O)NCCCC[C@H](NC(=O)[C@H](CCCCNC(=O)[C@H](CCCCN)NC(=O)[C@H](Cc1c[nH]c2ccccc12)NC(=O)[C@H](CCCCN)NC(=O)[C@H](CCCCN)NC(=O)Cc1ccc2ccccc2c1)NC(=O)[C@H](CCCCN)NC(=O)[C@H](Cc1c[nH]c2ccccc12)NC(=O)[C@H](CCCCN)NC(=O)[C@H](CCCCN)NC(=O)Cc1ccc2ccccc2c1)C(=O)NCC(=O)O (I: {Acetyl(2-naphthyl)}-KKWKK([Lys-Trp-Lys-Lys-Acetyl(2-naphthyl)])KG-OH / II: {Acetyl(2-naphthyl)}-KKWKK([Lys-Trp-Lys-Lys-Acetyl(2-naphthyl)]); amide I:6-II:C) | 6670 | 230 | 330 | 190 | 210 | 35.5 | 220 | 4410 | 240 | 340 | 7690 | Activity (Influenza A virus [12]): Active; Activity (RAW264.7 [14]): Active; Activity (RAW264.7 [15]): Active; Activity (RAW264.7 [16]): Active; Kd (Hemagglutinin): 0.00742 nM; Activity (RAW264.7 [17]): Active; Activity (Influenza A virus [18]): Active; Activity (Influenza A virus [20]): Active; Activity (RAW264.7 [21]): Active; Activity (RAW264.7 [22]): Active; Activity (RAW264.7 [23]): Active; survival at 5 mg/kg (Mus musculus [24]): 40%; Activity (Influenza A virus [25]): Active; Activity (Mus musculus [27]): 135.8%; Activity (Influenza A virus [28]): Active; Activity (RAW264.7 [29]): Active |
| CC(C)CCC[C@@H](C)[C@H]1CC[C@H]2[C@@H]3CC=C4C[C@@H](OC(=O)CN[C@@H](CCCCN)C(=O)N[C@@H](CCCCN)C(=O)N[C@@H](Cc5c[nH]c6ccccc56)C(=O)N[C@@H](CCCCN)C(N)=O)CC[C@]4(C)[C@H]3CC[C@]12C | 44300 |  |  | 1610 |  | 30.5 |  | 39100 | > 5000 | > 10000 | > 10000 |  |
